Read-outs that look alike come from different tables or passages of the source.
Key:
[1] = system: Wnt-responsive Sp5-Luc reporter in SW480 colon carcinoma cells; experiment: Wnt activity screening assay (Sp5-Luc reporter); type: cell-based; details: Homo sapiens
From the text: The screening assay for Wnt activity is described as follows. Reporter cell lines can be generated by stably transducing cancer cell lines (e.g., colon cancer) or primary cells (e.g., IEC-6 intestinal cells) with a lentiviral construct that includes a Wnt-responsive promoter driving expression of the firefly luciferase gene.
SW480 colon carcinoma cells were transduced with a lentiviral vector expressing luciferase with a human Sp5 promoter consisting of a sequence of eight TCF/LEF binding sites. […] These stably transduced SW480 cells were expanded in cell culture and used for all further screening activities. […] For Sp5-Luc reporter gene assays, the cells were plated at 4,000 cells/well in 384-well plates with a DMEM medium containing 1% fetal bovine serum, and 1% Penicillin-Streptomycin and incubated for 36 to 48 hours at 37° C. and 5% CO2. Following incubation, 15 μL of BriteLite Plus luminescence reagent (Perkin Elmer) was added to each well of the 384-well assay plates. The plates were placed on an orbital shaker for 2 min and then luminescence was quantified using the Envision (Perkin Elmer) plate reader.

CLK2 = molecular target: T1, CLK2 (Homo sapiens, UniProt P49760); experiment: CLK2 kinase activity assay (Z-lyte, Ser/Thr 6 peptide); type: biochemical
T1 construct: purchased Thermo Fisher (Life Technologies), Z'-LYTE Kinase Assay Kits
Procedure: All reactions were performed in duplicate.

CLK3 = CLK3 (Homo sapiens, UniProt P49761); experiment: CLK3 kinase activity assay (Z-lyte, Ser/Thr 18 peptide)
Procedure: Each compound was dissolved in DMSO as a 10 mM stock and used to prepare compound source plates.
This is a non-radioactive assay using fluorescence resonance energy transfer (FRET) between coumarin and fluorescein to detect kinase activity which is represented as a ratio of coumarin emission/fluorescein emission.
All reactions were performed in duplicate. Unphosphorylated (“0% Control”) and phosphorylated (“100% control”) forms of Ser/Thr 18 served as control reactions. Additionally, an 11-point dose-response curve of Staurosporine (1 uM top) was run to serve as a positive compound control.
After incubation, Development Reagent A was diluted in Development Buffer then added to the reaction and allowed to further incubate for one hour at room temperature.
Dose-response curves were generated and inhibitory concentration (IC50) values were calculated using non-linear regression curve fit in the Dotmatics' Studies Software (Bishops Stortford, UK).
Compounds were acoustically transferred on 1536-well plates (Echo 550, LabCyte) instrument. Kinase, peptide, and ATP reagents from the Z′-LYTE Kinase Assay Kits (Thermo Fisher) were dispensed onto the compound plates using an EL406 liquid dispenser (BioTek). Plates were incubated in the dark at room temperature for 1 hr. Development reagent was added to the plates and then incubated in the dark at room temperature for 1 hr. Fluorescence signal form the plate was then read using an EnVision Multilabel Plate Reader (Perkin Elmer).

[2] = system: SW480 colorectal cancer cells; experiment: Gene expression qRT-PCR in SW480 cells; type: cell-based; details: Homo sapiens
Procedure: SW480 colorectal cancer cells were plated at 1×10^4 cells per well into 96-well plates (Olympus). Compounds were diluted in cell culture media and added to the cells at a final concentration of 3 μM. Cells were treated with vehicle (DMSO) and compounds for 24 hours. N=3 biological replicates per conditions.
Following treatment, cells were lysed, and cDNA was generated using the Fastlane Cell cDNA Kit (Qiagen).
384-well PCR plates with pre-spotted primers for CLK1, CLK2, CLK3, DVL2, LRP5, SRSF1, SRSF3, SRSF4, SRSF5, TCF7, TCF7L2 were ordered from Bio-Rad. The generated cDNA, along with a SYBR Green qRT-PCR master mix (SsoAdvanced™ Universal SYBR® Green Supermix, Bio-Rad) was added to the PCR plates.
qRT-PCR was performed on the plates using a CFX384 Touch™ Real-Time PCR Detection System (Bio-Rad) with the manufacturer's recommended thermal cycling conditions.
Data from the qRT-PCR assay was normalized to the GAPDH and HPRT1 housekeeping genes and set gene expression fold change was set relative to vehicle-treated cells using the ΔΔCt analysis method.

[3] = SW480 Sp5-Luc reporter, 36 to 48 hours, read-out: EC50
[4] = recombinant CLK2 kinase, ATP 60 μM, read-out: EC50

T1 sequence (P49760 whole entry): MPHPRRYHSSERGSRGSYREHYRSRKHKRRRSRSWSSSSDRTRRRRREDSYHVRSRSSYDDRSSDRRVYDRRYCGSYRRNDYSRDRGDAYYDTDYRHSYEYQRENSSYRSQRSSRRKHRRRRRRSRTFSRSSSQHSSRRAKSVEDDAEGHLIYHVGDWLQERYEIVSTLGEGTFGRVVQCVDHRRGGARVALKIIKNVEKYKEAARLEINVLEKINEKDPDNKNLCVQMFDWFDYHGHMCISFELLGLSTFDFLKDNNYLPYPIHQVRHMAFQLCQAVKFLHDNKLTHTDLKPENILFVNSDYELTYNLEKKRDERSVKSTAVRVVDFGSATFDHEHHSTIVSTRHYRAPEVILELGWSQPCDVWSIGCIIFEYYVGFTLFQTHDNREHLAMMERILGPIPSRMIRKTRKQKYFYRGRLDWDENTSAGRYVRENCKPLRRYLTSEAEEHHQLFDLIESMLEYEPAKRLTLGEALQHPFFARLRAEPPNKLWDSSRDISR
CLK3, sequence (P49761 whole entry): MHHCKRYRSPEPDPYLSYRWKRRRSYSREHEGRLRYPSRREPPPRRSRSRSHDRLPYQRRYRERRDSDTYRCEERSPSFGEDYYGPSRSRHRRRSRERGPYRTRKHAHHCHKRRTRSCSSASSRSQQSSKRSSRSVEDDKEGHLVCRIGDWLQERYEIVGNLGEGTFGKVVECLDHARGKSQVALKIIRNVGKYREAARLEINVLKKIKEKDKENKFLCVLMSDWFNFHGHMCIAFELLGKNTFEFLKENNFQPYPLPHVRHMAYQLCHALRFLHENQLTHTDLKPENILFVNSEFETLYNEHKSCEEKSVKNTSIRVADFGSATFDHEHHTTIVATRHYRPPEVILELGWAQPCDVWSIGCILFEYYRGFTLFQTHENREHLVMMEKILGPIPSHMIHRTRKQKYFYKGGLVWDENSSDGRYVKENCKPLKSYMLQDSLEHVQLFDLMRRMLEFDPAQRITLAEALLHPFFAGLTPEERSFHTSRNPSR

SMILES	EC50 [1, 3]	EC50 (CLK2; [4])	EC50 (CLK3)	also measured
Cn1ncc(-c2ccc3cnc(NC(=O)c4ccnc(N5CCOCC5)c4)cc3c2)c1CN1CCOCC1 [Compound 13]	–	1 nM	10 nM	–
O=C(Nc1cc2cc(-c3cnn4c3CN(CCF)CC4)ccc2cn1)c1ccnc(OC2CNC2)c1 [Compound 79]	–	–	44.3 nM	EC50 (CLK2): 4.4 nM
Cc1ccc([N+](=O)[O-])cc1S(=O)(=O)N(C)/N=C/c1cnc2ccc(Br)cn12 [Compound 26]	–	–	15 nM	EC50 ([1]; SW480): 39 nM; EC50 (CLK2): 1 nM
CN(C)Cc1cncc(-c2ccc3[nH]nc(-c4nc5c(-c6cccc(F)c6)cncc5[nH]4)c3c2)c1 [Compound 38]	13 nM	1 nM	7 nM	–
Fc1cccc(-c2cncc3[nH]c(-c4n[nH]cc4/C=C/c4cccnc4)nc23)c1 [Compound 29]	14 nM	5 nM	62 nM	–
CNc1nc(NCc2ncccn2)c2c(-c3ccc4ncccc4c3)c[nH]c2n1 [Compound 9]	–	–	–	EC50 ([1]; SW480): 92 nM; fold induction at 3 µM ([2]; SW480, 24 h, read-out: gene expression fold change CLK1): 0.16; fold induction at 3 µM ([2]; SW480, 24 h, read-out: gene expression fold change CLK2): 0.06; fold induction at 3 µM ([2]; SW480, 24 h, read-out: gene expression fold change CLK3): 0.51; fold induction at 3 µM ([2]; SW480, 24 h, read-out: gene expression fold change DVL2): 0.21; fold induction at 3 µM ([2]; SW480, 24 h, read-out: gene expression fold change LRP5): 0.18; fold induction at 3 µM ([2]; SW480, 24 h, read-out: gene expression fold change SRSF1): 1.91; fold induction at 3 µM ([2]; SW480, 24 h, read-out: gene expression fold change SRSF3): 0.62; fold induction at 3 µM ([2]; SW480, 24 h, read-out: gene expression fold change SRSF4): 0.62; fold induction at 3 µM ([2]; SW480, 24 h, read-out: gene expression fold change SRSF5): 0.56; fold induction at 3 µM ([2]; SW480, 24 h, read-out: gene expression fold change TCF7): 0.2; fold induction at 3 µM ([2]; SW480, 24 h, read-out: gene expression fold change TCF7L2): 0.29
Cn1cncc1-c1ccc2cnc(NC(=O)c3ccc4c(c3)CNC4)cc2c1 [Compound 15]	–	1 nM	30 nM	–
CN1CCC(n2cc(C(=O)Nc3cc4cc(-c5cncc6[nH]ccc56)ccc4cn3)cn2)CC1 [Compound 23]	26 nM	–	9 nM	fold induction at 3 µM ([2]; SW480, 3 μM, 24 hours, relative to DMSO, read-out: gene expression fold change CLK1): 0.02; fold induction at 3 µM ([2]; SW480, 3 μM, 24 hours, relative to DMSO, read-out: gene expression fold change CLK2): 0.03; fold induction at 3 µM ([2]; SW480, 3 μM, 24 hours, relative to DMSO, read-out: gene expression fold change CLK3): 0.02; fold induction at 3 µM ([2]; SW480, 3 μM, 24 hours, relative to DMSO, read-out: gene expression fold change DVL2): 0.11; fold induction at 3 µM ([2]; SW480, 3 μM, 24 hours, relative to DMSO, read-out: gene expression fold change LRP5): 0.04; fold induction at 3 µM ([2]; SW480, 3 μM, 24 hours, relative to DMSO, read-out: gene expression fold change SRSF1): 0.3; fold induction at 3 µM ([2]; SW480, 3 μM, 24 hours, relative to DMSO, read-out: gene expression fold change SRSF3): 0.09; fold induction at 3 µM ([2]; SW480, 3 μM, 24 hours, relative to DMSO, read-out: gene expression fold change SRSF4): 0.02; fold induction at 3 µM ([2]; SW480, 3 μM, 24 hours, relative to DMSO, read-out: gene expression fold change SRSF5): 0.24; fold induction at 3 µM ([2]; SW480, 3 μM, 24 hours, relative to DMSO, read-out: gene expression fold change TCF7): 0.25; fold induction at 3 µM ([2]; SW480, 3 μM, 24 hours, relative to DMSO, read-out: gene expression fold change TCF7L2): 0.12
CN1CCN(c2nccc3[nH]c(-c4n[nH]c5cc(F)c(-c6cnn(C)c6)cc45)nc23)CC1 [Compound 42]	86 nM	–	–	–

Second part, led by results:

EC50 [1, 3]	EC50 (CLK2; [4])	EC50 (CLK3)	SMILES	also measured
623 nM	1 nM	22 nM	Cc1ncc(-c2ccc3[nH]nc(-c4nc5c(-c6cc(F)cc(NCCN(C)C)c6)ccnc5[nH]4)c3n2)n1C [Compound 8]	–
–	1 nM	20 nM	CN1CCC(Oc2cc(NC(=O)c3n[nH]c4cc(F)c(-c5cnn(C)c5)cc34)ccn2)CC1 [Compound 35]	–
41 nM	1 nM	10 nM	Cc1ccc(-c2cncc3[nH]c(-c4n[nH]c5ccc(-c6cncc(N)c6)nc45)nc23)s1 [Compound 7]	–
369 nM	3 nM	313 nM	Cc1n[nH]c2ccc(-c3cncc(OC4CCNCC4(F)F)n3)cc12 (stereo not drawn) [Compound 28]	–
–	2 nM	161 nM	CC(C)Oc1ccc(C(=O)Nc2cc3cc(-c4cnc5n4CCNC5)ccc3cn2)cc1 [Compound 17]	–
85 nM	1 nM	13 nM	CN1CCC(Oc2ccc(NC(=O)c3n[nH]c4ccc(-c5cncc(N)c5)cc34)cc2)CC1 [Compound 32]	–

From patent publication US20220062240A1, “METHODS OF TREATING CANCER USING A CLK INHIBITOR” (BioSplice Therapeutics, Inc., priority 2018, published 2022)
